Data published in PubChem BioAssay AID1963828 (Molecular Pharmacology Branch, DTP, NCI, 2024).

Tested on: 991263-137-R1-J2-PDC complex spheroid viability
Assay: Anticancer human tumor 991263-137-R1-J2-PDC patient-derived colon adenocarcinoma cell line growth inhibition [POLQ]
Conditions: for IC50: curve of first compound; for viability, T/C: stronger effect = lower value
In short: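 Complex spheroid viability model combining PDC tumour cells with endothelial (HUVEC) and MSC stromal cells. Novobiocin, ART-558 or RP6685 were tested singly and in combination with standard and investigational anticancer drugs. Each was titrated in half-log steps from near clinical Cmax, or from 10 microM where Cmax was unknown.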

[1] = second compound 0.0316 µM, first compound 0.00316 µM
[2] = second compound 0.0316 µM, first compound 0.01 µM
[3] = second compound 0.0316 µM, first compound 0.0316 µM
[4] = second compound 0.0316 µM, first compound 0.1 µM
[5] = second compound 0.0316 µM, first compound 0.316 µM
[6] = second compound 0.0316 µM, first compound 1 µM
[7] = second compound 0.1 µM, first compound 0.00316 µM
[8] = second compound 0.1 µM, first compound 0.01 µM
[9] = second compound 0.1 µM, first compound 0.0316 µM
[10] = second compound 0.1 µM, first compound 0.1 µM
[11] = second compound 0.1 µM, first compound 0.316 µM
[12] = second compound 0.1 µM, first compound 1 µM
[13] = second compound 0.316 µM, first compound 0.00316 µM
[14] = second compound 0.316 µM, first compound 0.01 µM
[15] = second compound 0.316 µM, first compound 0.0316 µM
[16] = second compound 0.316 µM, first compound 0.1 µM
[17] = second compound 0.316 µM, first compound 0.316 µM
[18] = second compound 0.316 µM, first compound 1 µM
[19] = second compound 1 µM, first compound 0.00316 µM
[20] = second compound 1 µM, first compound 0.01 µM
[21] = second compound 1 µM, first compound 0.0316 µM
[22] = second compound 1 µM, first compound 0.1 µM
[23] = second compound 1 µM, first compound 0.316 µM
[24] = second compound 1 µM, first compound 1 µM
[25] = second compound 3.16 µM, first compound 0.00316 µM
[26] = second compound 3.16 µM, first compound 0.01 µM
[27] = second compound 3.16 µM, first compound 0.0316 µM
[28] = second compound 3.16 µM, first compound 0.1 µM
[29] = second compound 3.16 µM, first compound 0.316 µM
[30] = second compound 3.16 µM, first compound 1 µM
[31] = second compound 10 µM, first compound 0.00316 µM
[32] = second compound 10 µM, first compound 0.01 µM
[33] = second compound 10 µM, first compound 0.0316 µM
[34] = second compound 10 µM, first compound 0.1 µM
[35] = second compound 10 µM, first compound 0.316 µM
[36] = second compound 10 µM, first compound 1 µM
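Also: spheroids exposed to compounds for 7 days before readout.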
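For viability, T/C in this document: 100% = DMSO vehicle control viability.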

Structure (SMILES): C=CCn1c(=O)c2cnc(Nc3ccc(N4CCN(C)CC4)cc3)nc2n1-c1cccc(C(C)(C)O)n1 + Nc1ccc(C#CCN(C(=O)Cc2ncc(C(F)(F)F)cc2C(F)(F)F)c2ccc(F)cc2)nn1
- IC50 (second compound 0.0316 µM): > 1 µM
- IC50 (second compound 0.1 µM): > 1 µM
- IC50 (second compound 0.316 µM): > 1 µM
- IC50 (second compound 1 µM): > 1 µM
- IC50 (second compound 3.16 µM): > 1 µM
- IC50 (second compound 10 µM): > 1 µM
- viability, T/C [1]: 96.2%
- viability, T/C [2]: 100%
- viability, T/C [3]: 90.4%
- viability, T/C [4]: 102%
- viability, T/C [5]: 104%
- viability, T/C [6]: 97.8%
- viability, T/C [7]: 117%
- viability, T/C [8]: 105%
- viability, T/C [9]: 93.6%
- viability, T/C [10]: 101%
- viability, T/C [11]: 103%
- viability, T/C [12]: 93.8%
- viability, T/C [13]: 97.3%
- viability, T/C [14]: 98.2%
- viability, T/C [15]: 108%
- viability, T/C [16]: 96.3%
- viability, T/C [17]: 109%
- viability, T/C [18]: 93.5%
- viability, T/C [19]: 103%
- viability, T/C [20]: 115%
- viability, T/C [21]: 103%
- viability, T/C [22]: 105%
- viability, T/C [23]: 105%
- viability, T/C [24]: 92%
- viability, T/C [25]: 91.8%
- viability, T/C [26]: 102%
- viability, T/C [27]: 101%
- viability, T/C [28]: 92.1%
- viability, T/C [29]: 98.1%
- viability, T/C [30]: 102%
- viability, T/C [31]: 86.3%
- viability, T/C [32]: 102%
- viability, T/C [33]: 103%
- viability, T/C [34]: 99.4%
- viability, T/C [35]: 102%
- viability, T/C [36]: 78.2%

Structure (SMILES): CCCS(=O)(=O)Nc1ccc(F)c(C(=O)c2c[nH]c3ncc(-c4ccc(Cl)cc4)cc23)c1F + Nc1ccc(C#CCN(C(=O)Cc2ncc(C(F)(F)F)cc2C(F)(F)F)c2ccc(F)cc2)nn1
- IC50 (second compound 0.0316 µM): > 10 µM
- IC50 (second compound 0.1 µM): > 10 µM
- IC50 (second compound 0.316 µM): > 10 µM
- IC50 (second compound 1 µM): > 10 µM
- IC50 (second compound 3.16 µM): > 10 µM
- IC50 (second compound 10 µM): > 10 µM
- viability, T/C [3]: 114%
- viability, T/C [4]: 98.2%
- viability, T/C [5]: 103%
- viability, T/C [6]: 107%
- viability, T/C (second compound 0.0316 µM, first compound 3.16 µM): 117%
- viability, T/C (second compound 0.0316 µM, first compound 10 µM): 102%
- viability, T/C [9]: 97.6%
- viability, T/C [10]: 101%
- viability, T/C [11]: 97.2%
- viability, T/C [12]: 110%
- viability, T/C (second compound 0.1 µM, first compound 3.16 µM): 103%
- viability, T/C (second compound 0.1 µM, first compound 10 µM): 103%
- viability, T/C [15]: 105%
- viability, T/C [16]: 114%
- viability, T/C [17]: 108%
- viability, T/C [18]: 98.7%
- viability, T/C (second compound 0.316 µM, first compound 3.16 µM): 128%
- viability, T/C (second compound 0.316 µM, first compound 10 µM): 95.1%
- viability, T/C [21]: 93.9%
- viability, T/C [22]: 102%
- viability, T/C [23]: 112%
- viability, T/C [24]: 117%
- viability, T/C (second compound 1 µM, first compound 3.16 µM): 117%
- viability, T/C (second compound 1 µM, first compound 10 µM): 107%
- viability, T/C [27]: 117%
- viability, T/C [28]: 97.3%
- viability, T/C [29]: 111%
- viability, T/C [30]: 93.2%
- viability, T/C (second compound 3.16 µM, first compound 3.16 µM): 111%
- viability, T/C (second compound 3.16 µM, first compound 10 µM): 115%
- viability, T/C [33]: 90.2%
- viability, T/C [34]: 112%
- viability, T/C [35]: 95.7%
- viability, T/C [36]: 104%
- viability, T/C (second compound 10 µM, first compound 3.16 µM): 115%
- viability, T/C (second compound 10 µM, first compound 10 µM): 116%

Structure (SMILES): CCc1c2c(nc3ccc(O)cc13)-c1cc3c(c(=O)n1C2)COC(=O)[C@]3(O)CC + Nc1ccc(C#CCN(C(=O)Cc2ncc(C(F)(F)F)cc2C(F)(F)F)c2ccc(F)cc2)nn1
- IC50 (second compound 0.0316 µM): 0.081 µM
- IC50 (second compound 0.1 µM): 0.0621 µM
- IC50 (second compound 0.316 µM): 0.101 µM
- IC50 (second compound 1 µM): 0.11 µM
- IC50 (second compound 3.16 µM): 0.0909 µM
- IC50 (second compound 10 µM): 0.0941 µM
- viability, T/C [1]: 90.7%
- viability, T/C [2]: 76.1%
- viability, T/C [3]: 51.9%
- viability, T/C [4]: 51.2%
- viability, T/C [5]: 42%
- viability, T/C [6]: 26.2%
- viability, T/C [7]: 95.9%
- viability, T/C [8]: 78.6%
- viability, T/C [9]: 52.9%
- viability, T/C [10]: 45.3%
- viability, T/C [11]: 42.8%
- viability, T/C [12]: 30.2%
- viability, T/C [13]: 102%
- viability, T/C [14]: 89.6%
- viability, T/C [15]: 58%
- viability, T/C [16]: 52.9%
- viability, T/C [17]: 39.8%
- viability, T/C [18]: 25.6%
- viability, T/C [19]: 100%
- viability, T/C [20]: 81.5%
- viability, T/C [21]: 56.7%
- viability, T/C [22]: 55.4%
- viability, T/C [23]: 42.8%
- viability, T/C [24]: 28.2%
- viability, T/C [25]: 89.7%
- viability, T/C [26]: 72.7%
- viability, T/C [27]: 59.1%
- viability, T/C [28]: 48%
- viability, T/C [29]: 43.6%
- viability, T/C [30]: 24.3%
- viability, T/C [31]: 75%
- viability, T/C [32]: 65.1%
- viability, T/C [33]: 58.3%
- viability, T/C [34]: 53.3%
- viability, T/C [35]: 35.7%
- viability, T/C [36]: 24.5%
